For this assay, the system named is RAW264.7. In words: Antiinflammatory activity in mouse RAW264.7 cells assessed as inhibition of LPS-induced nitric oxide production preincubated for 2 hrs followed by LPS challenge measured after 24 hrs. The assay is classed as functional, cell-based.

Usually IC50 stands for the point on the concentration scale where inhibition reaches its midpoint.

For `C/C=C/C(=O)O[C@H]1C(C)(C)[C@H](CC(=O)OC)[C@]2(C)C(=O)[C@@]1(O)[C@H]1O[C@@]13C2=CC[C@]1(C)[C@H]3CC(=O)O[C@H]1c1ccoc1` [TRICHINENLIDE B], the IC50 amounted to 2.85 µM.

As for `COc1cc(/C=C/C(=O)CC(=O)/C=C/c2ccc(O)c(OC)c2)ccc1O` [CURCUMIN], the IC50 is 5 µM.

For the compound `C/C=C/C(=O)O[C@H]1C(C)(C)[C@H](CC(=O)OC)[C@]2(C)C(=O)[C@@]1(O)[C@H]1O[C@]13[C@@H]1CC(=O)O[C@@H](c4ccoc4)[C@]1(C)CC[C@H]23`, the IC50 turned out to be 3.33 µM. The value for `C/C=C/C(=O)O[C@H]1C(C)(C)[C@H](C(O)C(=O)OC)[C@]2(C)C(=O)[C@@]1(O)[C@H]1O[C@@]13C2=CC[C@]1(C)[C@H]3CC(=O)O[C@H]1c1ccoc1` (some centres undefined) [TRICHINENLIDE C] was 1.88 µM.
